{"source": "patent US20250268165A1", "about": "“METHOD FOR PRODUCING HAPLOID AND DOUBLED HAPLOID SUNFLOWER PLANTS BY MICROSPORE CULTURE” (KWS SAAT SE & Co. KGaA, priority 2022, published 2025)", "key": {"[1]": {"system": "isolated microspores of Helianthus annuus, 007 Genotype", "assay": "Callus induction from isolated microspores with different 2,4-D concentrations in induction media II (Example 4.3)", "type": "cell-based", "protocol": "Top row: arrows indicate where embryos are located (magnification). Bottom row: corresponding petri dish.\n(§1) Solution of microspore density of 80.000 microspores per ml are centrifuged for 10 min at 200 g and supernatant is decanted. Induction media I (see, for example, Table 3.4) is added to the remaining microspores and divided into plastic tubes. Histone deacetylase inhibitor (HDACi) and colchicine are added to each tube and microspore solutions are stored at 26° C. for 2 days. If the HDACi trichostatin A (TSA) is used, it is dissolved in dimethylsulfoxide (DMSO) to a final concentration of between 1M and 10 μM, preferably 100 nM to 10 μM, more preferably 1 μM to 10 μM, depending on the genotype and the plant donor sources. If colchicine is used, it is dissolved in water to a final concentration of between 1 mg and 500 mg, preferably 10 mg to 200 mg, more preferably 50 mg to 100 mg, depending on the genotype and the plant donor sources. The HDACi and the chromosome doubling agent are removed by centrifugation for 10 min, 200 g. Supernatant is decanted, corresponding amount of induction media I is added, and microspores resuspended. Tubes are incubated at 26° C. in the dark for several days.\n(§2) Thereafter, microspore solutions are centrifuged for 10 min at 200 g and supernatant is decanted. Corresponding amounts of induction media II with different 2,4-D concentrations is added according to the treatments (see, for example, Table 3.5) and the microspore solution is plated in petri dishes and placed at 26° C. for callus induction.\nDepending on tissue culture length, and the tissue culture system, at least one antibiotic can be added to Incubation Medium II, such as carbenicillin, penicillin or timentin. One to two weeks after isolation, the first microspore nuclear division can be observed (DAPI staining). Callus structures can be seen by eye after approximately three weeks after isolation."}, "[2]": {"system": "sunflower microspore derived calluses", "assay": "Plant regeneration: shoots regenerated per callus unit after callus induction with auxin analogs (Example 4.2)", "type": "cell-based, Helianthus annuus", "details": "auxin analog used during callus induction (FIG. 8B)", "protocol": "as §2, with “auxin and auxin analogs” for “2,4-D concentrations”, “3.3)” for “3.5)”, “[…]” for “26° C.”, “induction. Abbreviations used in Table 3.3: 3.5ME=3,5-dimethylphenoxyacetic acid; PHAA=Phenoxyacetic acid; 4-CPA or 4CIPA=p-Chlorophenoxyacetic acid.” for “induction.”\nCallus is removed from liquid media and transferred to regeneration media (see, for example, Table 4) with 1 mg/L BAP and grown at 26° C. in the light until plant regeneration is observed, approximately 2 weeks after transfer (FIG. 4)"}, "[3]": {"system": "isolated microspores of Helianthus annuus", "assay": "Callus induction from isolated microspores with auxin analogs in induction media II (Example 4.2)", "type": "cell-based", "details": "1 mg/L (FIG. 8A), control with 2,4-D", "protocol": "as §1, with “example, Table 3.2) is added” for “example, Table 3.4) is added”, “of between 1 nM and 10” for “of between 1M and 10”, “mg and 300 mg, preferably” for “mg and 500 mg, preferably”, “donor sources. Another antimitotic agent, e.g., oryzalin and/or trifluralin, or any other chromosome doubling agent may be used as well. The HDACi” for “donor sources. The HDACi”, “microspores resuspended. Usually, an auxin or a (synthetic) analog thereof will usually be applied in a concentration of about 0.05 to about 3 mg/L. Tubes are” for “microspores resuspended. Tubes are”, “several days. […]” for “several days.”"}, "[4]": {"system": "microspore derived sunflower shoots", "assay": "Plant rooting of microspore derived shoots in rooting media (Example 5.2)", "type": "in vivo, Helianthus annuus", "details": "rooting media (MS), 24° C. in the light, approximately 2 weeks after transfer; auxin 0.5 mg/L", "protocol": "Shoots are transferred to growing/rooting medium (see, for example, Table 5) with or without one auxin (in the example PAA (phenylacetic acid) or IBA were used) and grown at 24° C. in the light until root formation is observed, approximately 2 weeks after transfer (FIG. 10)."}}, "data": [{"smiles": "O=C(O)COc1ccc(Cl)cc1Cl", "note": "[2,4-D, 2,4-Dichlorophenoxyacetic acid]", "values": [{"measurement": "Generation of microspore-derived embryos", "setting": "[1]; 0.5, 0.2, 0.1 mg/L 2,4-D and Ctrl 1 mg/L 2,4-D", "value": "observed in all treatments"}, {"measurement": "Induction of microspore division and callus formation", "setting": "[1]; 0.5, 0.2, 0.1 mg/L 2,4-D and Ctrl 1 mg/L in induction media II, 007 Genotype (FIG. 9)", "value": "able to induce microspore division and callus formation"}, {"measurement": "Callus formation of the treatments compared with control", "setting": "[1]; 0.5, 0.2, 0.1 mg/L 2,4-D versus Ctrl 1 mg/L 2,4-D", "value": "did not decreased or enhanced callus formation"}]}, {"smiles": "Cc1cc(C)cc(OCC(=O)O)c1", "note": "[3.5ME, 3,5-dimethylphenoxyacetic acid]", "values": [{"measurement": "Regeneration: number of shoots regenerated per callus unit in comparison to control", "setting": "[2]", "value": "tendency to increase regeneration"}]}, {"smiles": "O=C(O)COc1ccc(Cl)cc1", "note": "[4CIPA/4-CPA, p-Chlorophenoxyacetic acid]", "values": [{"measurement": "Callus quantity (callus number) in comparison to control", "setting": "[3]", "value": "tendency to increase callus quantity"}, {"measurement": "Regeneration: number of shoots regenerated per callus unit in comparison to control", "setting": "[2]", "value": "tendency to increase regeneration"}]}, {"smiles": "O=C(O)CCCc1c[nH]c2ccccc12", "note": "[IBA, indole-3-butyric acid]", "values": [{"measurement": "Cultivated plants showing root formation", "setting": "[4]", "value": 68, "unit": "%"}]}]}
